In brackets after ≈: the same amount, converted by molar mass. Where a SMILES comes first, the peptide text is derived from it. The star is where a group is joined. Benzoyl(4-B(OH)2) = O=C(c1ccc(B(O)O)cc1)*; Acridin9yl = c1ccc2c(*)c3ccccc3nc2c1; Bz = O=C(c1ccccc1)*
Experiments:
[1] = tested on: Mycolicibacterium smegmatis; assay: Antimicrobial activity against Mycobacterium smegmatis ATCC 607 measured on day 4 by broth microdilution method; format: functional; details: ATCC 607, 96 h
Candida albicans [2] = assay: Antifungal activity against Candida albicans measured on day 4 by broth microdilution method; format: functional; details: 96 h
Staphylococcus aureus = assay: Antimicrobial activity against Staphylococcus aureus ATCC 6538 measured on day 4 by broth microdilution method; format: functional; details: ATCC 6538, 96 h
Escherichia coli = assay: Antimicrobial activity against Escherichia coli C ATCC 13706 measured on day 4 by broth microdilution method; format: functional; details: C ATCC 13706, 96 h
Aspergillus niger = assay: Antifungal activity against Aspergillus niger measured on day 4 by broth microdilution method; format: functional; details: 96 h
U-87 MG = assay: Cytotoxicity against human U87 cells assessed as decrease in cell viability at 10 uM after 24 hrs by MTT assay; format: cell-based; details: u-87mg atcc
Saccharomyces cerevisiae = assay: Induction of membrane lysis activity in Saccharomyces cerevisiae assessed as maltase release at MIC after 60 mins relative to control; format: functional
Erythrocyte = assay: Hemolytic activity in sheep RBC measured after 15 mins; format: ADME, cell-based, Ovis aries; details: 0.25 h
Candida albicans [3] = assay: Antifungal activity against Candida albicans VT1406 in cell suspension after 24 hrs by XXT/PMS dye based assay; format: functional; details: VT1406, 24 h
Candida albicans [4] = assay: Induction of membrane lysis in Candida albicans assessed as maltase release at MIC after 60 mins relative to control; format: functional
Candida albicans [5] = assay: Antibiofilm activity against Candida albicans VT1406 after 24 hrs by XXT/PMS dye based assay; format: functional; details: VT1406, 24 h
[6] = Safety index, ratio of EC10 for hemolytic activity in sheep RBC to MIC for Candida albicans; format: toxicity; details: sheep red blood cells

Compound	MIC [1] [µg/mL]	MIC (Candida albicans [2]) [µg/mL]	MIC (Staphylococcus aureus) [µg/mL]	MIC (Escherichia coli) [µg/mL]	MIC (Aspergillus niger) [µg/mL]	Activity (U-87 MG)	Activity (Saccharomyces cerevisiae) [%]	EC10 (Erythrocyte) [µg/mL]	MIC (Candida albicans [3]) [µg/mL]	Activity (Candida albicans [4]) [%]	MIC (Candida albicans [5]) [µg/mL]	selectivity ratio [6]
CC(C)C[C@H](NC(=O)[C@H](CCCCN)NC(=O)[C@H](CCCCN)NC(=O)[C@H](CCCCN)NC(=O)[C@H](CCCCNC(=O)c1ccccc1)NC(=O)[C@H](CCCCN)NC(=O)[C@H](CCCCN)NC(=O)[C@@H](N)CCCCNC(=O)c1ccccc1)C(=O)N[C@@H](CCCCNC(=O)c1ccc(B(O)O)cc1)C(=O)N[C@@H](Cc1ccc(O)cc1)C(=O)O (H-K(Bz)KKK(Bz)KKKLK(Benzoyl(4-B(OH)2))Y-OH)	62.5 (≈ 37.3 µM)	8 (≈ 4.77 µM)	62.5 (≈ 37.3 µM)	8 (≈ 4.77 µM)	125 (≈ 74.6 µM)	–	–	–	–	–	–	–
CC(C)C[C@H](NC(=O)[C@H](CCCCN)NC(=O)[C@H](CCCCN)NC(=O)[C@H](CCCCNc1c2ccccc2nc2ccccc12)NC(=O)[C@H](CCCCN)NC(=O)[C@H](CCCCN)NC(=O)[C@H](CCCCNc1c2ccccc2nc2ccccc12)NC(=O)[C@@H](N)CCCCN)C(=O)N[C@@H](CCCCNC(=O)c1ccc(B(O)O)cc1)C(=O)N[C@@H](Cc1ccc(O)cc1)C(=O)O (H-KK(Acridin9yl)KKK(Acridin9yl)KKLK(Benzoyl(4-B(OH)2))Y-OH)	32 (≈ 17.6 µM)	2 (≈ 1.1 µM)	8 (≈ 4.39 µM)	2 (≈ 1.1 µM)	32 (≈ 17.6 µM)	Non-Toxic	1.4	> 250	2 (≈ 1.1 µM)	1	1 (≈ 0.549 µM)	> 100
CC(C)C[C@H](NC(=O)[C@H](CC(C)C)NC(=O)[C@H](CCCCN)NC(=O)[C@H](CCCCNC(=O)c1ccc(B(O)O)cc1)NC(=O)[C@H](CCCCN)NC(=O)[C@H](CCCCN)NC(=O)[C@H](CCCCNC(=O)c1ccc(B(O)O)cc1)NC(=O)[C@@H](N)CCCCN)C(=O)N[C@@H](CCCCN)C(=O)N[C@@H](Cc1ccc(O)cc1)C(=O)O (H-KK(Benzoyl(4-B(OH)2))KKK(Benzoyl(4-B(OH)2))KLLKY-OH)	62.5 (≈ 39 µM)	16 (≈ 10 µM)	62.5 (≈ 39 µM)	16 (≈ 10 µM)	125 (≈ 78.1 µM)	–	–	–	–	–	–	–
CC(C)C[C@H](NC(=O)[C@H](CCCCN)NC(=O)[C@H](CCCCN)NC(=O)[C@H](CCCCNC(=O)c1ccccc1)NC(=O)[C@H](CCCCN)NC(=O)[C@H](CCCCN)NC(=O)[C@H](CCCCNC(=O)c1ccccc1)NC(=O)[C@@H](N)CCCCN)C(=O)N[C@@H](CCCCNC(=O)c1ccc(B(O)O)cc1)C(=O)N[C@@H](Cc1ccc(O)cc1)C(=O)O (H-KK(Bz)KKK(Bz)KKLK(Benzoyl(4-B(OH)2))Y-OH)	62.5 (≈ 37.3 µM)	4 (≈ 2.39 µM)	32 (≈ 19.1 µM)	32 (≈ 19.1 µM)	125 (≈ 74.6 µM)	–	0.4	–	–	18	–	–
CC(C)C[C@H](NC(=O)[C@H](CCCCN)NC(=O)[C@H](CCCCNC(=O)c1ccc(B(O)O)cc1)NC(=O)[C@H](CCCCN)NC(=O)[C@H](CCCCN)NC(=O)[C@H](CCCCNC(=O)c1ccc(B(O)O)cc1)NC(=O)[C@H](CCCCN)NC(=O)[C@@H](N)CCCCN)C(=O)N[C@@H](CCCCNC(=O)c1ccc(B(O)O)cc1)C(=O)N[C@@H](Cc1ccc(O)cc1)C(=O)O (H-KKK(Benzoyl(4-B(OH)2))KKK(Benzoyl(4-B(OH)2))KLK(Benzoyl(4-B(OH)2))Y-OH)	62.5 (≈ 35.4 µM)	8 (≈ 4.54 µM)	62.5 (≈ 35.4 µM)	16 (≈ 9.07 µM)	125 (≈ 70.9 µM)	–	–	–	–	–	–	–
CC(C)C[C@H](NC(=O)[C@H](CCCCNc1c2ccccc2nc2ccccc12)NC(=O)[C@H](CCCCN)NC(=O)[C@H](CCCCN)NC(=O)[C@H](CCCCN)NC(=O)[C@H](CCCCN)NC(=O)[C@H](CCCCN)NC(=O)[C@@H](N)CCCCN)C(=O)N[C@@H](CCCCN)C(=O)N[C@@H](Cc1ccc(O)cc1)C(=O)O (H-KKKKKKK(Acridin9yl)LKY-OH)	16 (≈ 10.7 µM)	1 (≈ 0.668 µM)	16 (≈ 10.7 µM)	16 (≈ 10.7 µM)	62.5 (≈ 41.8 µM)	Non-Toxic	0.95	175 (≈ 117 µM)	1 (≈ 0.668 µM)	1	62.5 (≈ 41.8 µM)	> 100
NCCCC[C@H](NC(=O)[C@H](CCCCNC(=O)c1ccccc1)NC(=O)[C@H](CCCCNC(=O)c1ccccc1)NC(=O)[C@H](CCCCN)NC(=O)[C@H](CCCCN)NC(=O)[C@H](CCCCN)NC(=O)[C@H](CCCCN)NC(=O)[C@H](CCCCN)NC(=O)[C@@H](N)CCCCN)C(=O)N[C@@H](Cc1ccc(O)cc1)C(=O)O (H-KKKKKKK(Bz)K(Bz)KY-OH)	32 (≈ 20.7 µM)	1 (≈ 0.648 µM)	62.5 (≈ 40.5 µM)	16 (≈ 10.4 µM)	250 (≈ 162 µM)	–	–	–	–	–	–	–
CC(C)C[C@H](NC(=O)[C@H](CCCCNC(=O)c1ccccc1)NC(=O)[C@H](CCCCN)NC(=O)[C@H](CCCCN)NC(=O)[C@H](CCCCN)NC(=O)[C@H](CCCCN)NC(=O)[C@H](CCCCN)NC(=O)[C@@H](N)CCCCN)C(=O)N[C@@H](CCCCN)C(=O)N[C@@H](Cc1ccc(O)cc1)C(=O)O (H-KKKKKKK(Bz)LKY-OH)	32 (≈ 22.5 µM)	2 (≈ 1.4 µM)	62.5 (≈ 43.9 µM)	32 (≈ 22.5 µM)	125 (≈ 87.8 µM)	–	1	–	–	<1	–	–
CC(C)C[C@H](NC(=O)[C@H](CCCCN)NC(=O)[C@H](CCCCN)NC(=O)[C@H](CCCCN)NC(=O)[C@H](CCCCN)NC(=O)[C@H](CCCCN)NC(=O)[C@H](CCCCN)NC(=O)[C@@H](N)CCCCN)C(=O)N[C@@H](CCCCNC(=O)c1ccccc1)C(=O)N[C@@H](Cc1ccc(O)cc1)C(=O)O (H-KKKKKKKLK(Bz)Y-OH)	32 (≈ 22.5 µM)	1 (≈ 0.702 µM)	62.5 (≈ 43.9 µM)	8 (≈ 5.62 µM)	125 (≈ 87.8 µM)	–	1.8	–	–	4	–	–
CC(C)C[C@H](NC(=O)[C@H](CCCCN)NC(=O)[C@H](CCCCN)NC(=O)[C@H](CCCCN)NC(=O)[C@H](CCCCN)NC(=O)[C@H](CCCCN)NC(=O)[C@@H](N)CCCCN)C(=O)N[C@@H](CCCCNC(=O)c1ccc(B(O)O)cc1)C(=O)N[C@@H](CCCCNC(=O)c1ccc(B(O)O)cc1)C(=O)N[C@@H](Cc1ccc(O)cc1)C(=O)O (H-KKKKKKLK(Benzoyl(4-B(OH)2))K(Benzoyl(4-B(OH)2))Y-OH)	32 (≈ 19.8 µM)	4 (≈ 2.48 µM)	32 (≈ 19.8 µM)	8 (≈ 4.95 µM)	62.5 (≈ 38.7 µM)	–	–	–	–	–	–	–
CC(C)C[C@H](NC(=O)[C@H](CCCCNC(=O)c1ccc(B(O)O)cc1)NC(=O)[C@H](CC(C)C)NC(=O)[C@H](CCCCN)NC(=O)[C@H](CCCCN)NC(=O)[C@H](CCCCN)NC(=O)[C@H](CCCCN)NC(=O)[C@H](CCCCN)NC(=O)[C@@H](N)CCCCN)C(=O)N[C@@H](Cc1ccc(O)cc1)C(=O)O (H-KKKKKKLK(Benzoyl(4-B(OH)2))LY-OH)	32 (≈ 22 µM)	4 (≈ 2.75 µM)	32 (≈ 22 µM)	16 (≈ 11 µM)	62.5 (≈ 43 µM)	–	–	–	–	–	–	–
CC(C)C[C@H](NC(=O)[C@H](CCCCN)NC(=O)[C@H](CCCCN)NC(=O)[C@H](CC(C)C)NC(=O)[C@H](CCCCN)NC(=O)[C@@H](N)CCCCN)C(=O)N[C@@H](CCCCN)C(=O)N[C@@H](CCCCNC(=O)c1ccc(B(O)O)cc1)C(=O)N[C@@H](CCCCNC(=O)c1ccc(B(O)O)cc1)C(=O)N[C@@H](Cc1ccc(O)cc1)C(=O)O (H-KKLKKLKK(Benzoyl(4-B(OH)2))K(Benzoyl(4-B(OH)2))Y-OH)	62.5 (≈ 39 µM)	8 (≈ 5 µM)	62.5 (≈ 39 µM)	16 (≈ 10 µM)	125 (≈ 78.1 µM)	–	–	–	–	–	–	–
CC(C)C[C@H](NC(=O)[C@H](CC(C)C)NC(=O)[C@H](CCCCN)NC(=O)[C@H](CCCCN)NC(=O)[C@H](CC(C)C)NC(=O)[C@H](CCCCN)NC(=O)[C@@H](N)CCCCN)C(=O)N[C@@H](CCCCN)C(=O)N[C@@H](CCCCNC(=O)c1ccc(B(O)O)cc1)C(=O)N[C@@H](Cc1ccc(O)cc1)C(=O)O (H-KKLKKLLKK(Benzoyl(4-B(OH)2))Y-OH)	32 (≈ 22.3 µM)	4 (≈ 2.78 µM)	62.5 (≈ 43.5 µM)	16 (≈ 11.1 µM)	125 (≈ 86.9 µM)	–	–	–	–	–	–	–
CC(C)C[C@H](NC(=O)[C@H](CCCCN)NC(=O)[C@H](CCCCN)NC(=O)[C@H](CC(C)C)NC(=O)[C@@H](N)CCCCN)C(=O)N[C@@H](CCCCN)C(=O)N[C@@H](CCCCN)C(=O)N[C@@H](CCCCN)C(=O)N[C@@H](CCCCNC(=O)c1ccc(B(O)O)cc1)C(=O)N[C@@H](Cc1ccc(O)cc1)C(=O)O (H-KLKKLKKKK(Benzoyl(4-B(OH)2))Y-OH)	32 (≈ 22 µM)	2 (≈ 1.38 µM)	32 (≈ 22 µM)	16 (≈ 11 µM)	125 (≈ 86 µM)	–	–	–	–	–	–	–
CC(C)C[C@H](NC(=O)[C@H](CCCCN)NC(=O)[C@H](CC(C)C)NC(=O)[C@H](CCCCN)NC(=O)[C@H](CCCCN)NC(=O)[C@H](CC(C)C)NC(=O)[C@@H](N)CCCCN)C(=O)N[C@@H](CCCCN)C(=O)N[C@@H](CCCCNC(=O)c1ccc(B(O)O)cc1)C(=O)N[C@@H](Cc1ccc(O)cc1)C(=O)O (H-KLKKLKLKK(Benzoyl(4-B(OH)2))Y-OH)	32 (≈ 22.3 µM)	4 (≈ 2.78 µM)	62.5 (≈ 43.5 µM)	16 (≈ 11.1 µM)	125 (≈ 86.9 µM)	–	–	–	–	–	–	–
CC(C)C[C@H](NC(=O)[C@H](CC(C)C)NC(=O)[C@H](CCCCN)NC(=O)[C@H](CC(C)C)NC(=O)[C@@H](N)CC(C)C)C(=O)N[C@@H](CCCCN)C(=O)N[C@@H](CCCCN)C(=O)N[C@@H](CCCCNC(=O)c1ccc(B(O)O)cc1)C(=O)N[C@@H](CCCCN)C(=O)N[C@@H](Cc1ccc(O)cc1)C(=O)O (H-LLKLLKKK(Benzoyl(4-B(OH)2))KY-OH)	125 (≈ 87.9 µM)	8 (≈ 5.62 µM)	62.5 (≈ 43.9 µM)	16 (≈ 11.2 µM)	250 (≈ 176 µM)	–	–	–	–	–	–	–
C[C@@H]1[C@H](O)[C@@H](C)/C=C/C=C/C=C/C=C/C=C/C=C/C=C/[C@H](O[C@@H]2O[C@H](C)[C@@H](O)[C@H](N)[C@@H]2O)C[C@@H]2O[C@](O)(C[C@@H](O)C[C@@H](O)[C@H](O)CC[C@@H](O)C[C@@H](O)CC(=O)O[C@H]1C)C[C@H](O)[C@H]2C(=O)O [AMPHOTERICIN B]	–	–	–	–	–	–	–	–	0.25 (≈ 0.271 µM)	–	0.25 (≈ 0.271 µM)	–
Clc1ccc(COC(Cn2ccnc2)c2ccc(Cl)cc2Cl)c(Cl)c1 (centres undefined) [MICONAZOLE]	–	–	–	–	–	–	–	–	1 (≈ 2.4 µM)	–	4 (≈ 9.61 µM)	–

Reference: ChEMBL document CHEMBL4118096, “Branched Peptides: Acridine and Boronic Acid Derivatives as Antimicrobial Agents” (ACS Med Chem Lett, 2017)
